The record followed here is US12600925B2, “Laundry sanitizing and softening compositions” (Reckitt Benckiser LLC, priority 2023, dated 2026).

This assay concerns Staphylococcus epidermidis. Kind of assay: Minimum inhibitory concentration, BKC / polymer synergy, 96-well microtiter. The format is cell-based. The settings on record: second test (lower line of each polymer); 24 h, 37° C.; 100% active. The procedure: Take well-defined and typical colonies of Staphylococcus epidermidis from a recent plate of tryptic soy agar (TSA), dissolve and vortex them in a tube containing 30 mL of tryptic soy broth (TSB) and incubate for 17+/−1h at 37° C.+/−1° C. Quantify by plate count in TSA (incubated for 48h+/−1h at 37° C.+/−1° C.). Use the broth culture suspension within seven (7) days after the incubation period. Vortex and take 0.2 mL from the broth culture and dilute in appropriate volume of 0.85% NaCl to normalize the strain at 3-5×10^5 CFU/mL Using a micropipette, add 100 μL of TSB in a 96-well microtiter plate format. […] (both samples are the same) Using a micropipette take 100 μL of the sample from column 2 and dilute it in column 3 performing a 1:1 dilution with the diluent already present in the wells, proceeding with a serial dilution up to column 9. Discard the remaining 100 μL. […] Dispense 100 μL of inoculum using a micropipette into each well in columns 2 to 10. Columns 1 and 11 are the sample sterility test and negative test control columns, respectively. No growth should be observed in these columns. Column 10 is the positive test control and growth should be observed. […] Incubate the microwell plate for 24h+/−1h at 37° C.+/−1° C. The minimum inhibitory concentration (MIC) is determined by visually checking the wells for growth. […]

As for “C12-16 alkyldimethylbenzylammonium chloride [BKC]”, the “BKC MIC in ppm alone” value was 0.3-0.8 ppm.
